{
  "source": "patent US7507395B2",
  "about": "“Methods of using fluorescent pH indicators for intracellular assays” (MDS Analytical Technologies (US) Inc., priority 2001, dated 2009)",
  "molecules": {"B1": {"name": "RANTES (protein, UniProt P13501 24-91, looked up)", "C-C motif chemokine 5": "SPYSSDTTPCCFAYIARPLPRAHIKEYFYTSGKCSNPAVVFVTRKNRQVCANPEKKWVREYINSLEMS", "notes": "RANTES, added to CHO/CCR5/Galphaqi5 cells at increasing concentrations"}},
  "key": {"[1]": {"conditions": "pH buffer series, final concentration 1.0 μM, Gemini XS fluorescence plate reader", "text": "The excitation and emission spectra of the aqueous solutions are obtained with a Gemini XS fluorescence plate reader (Molecular Devices Corporation; Sunnyvale, Calif.)."}, "M1CHO cells [2]": {"tested_on": "M1CHO cells", "experiment": "Effect of increasing concentrations of carbachol on M1CHO cells (intracellular pH)", "assay_type": "cell-based", "conditions": "carbachol 6.7 μM or 0 μM, after ammonium chloride", "description": "(§1) M1CHO cells, 50,000, in 40 μL were seeded and incubated at 37° C., 5% CO2 overnight in a 96-well microplate. To each well is added 10 μL of the Loading Buffer (as described in Examples 19 and 20) including a fluorescein diacetate compound of the invention and a nonfluorescent quenching dye. After 45 min at room temperature, 5 μL of 220 mM ammonium chloride is added. […] A drop is fluorescence signal is observed at time=10 to 20 seconds due to the increased acidification of the cells. The low pH stimulates the Na^+/H^+ exchange pump.\nFor Compounds 19 and 20, emission is monitored at 550 nm and excitation is monitored at 505 and 470 nm."}, "[3]": {"conditions": "background statement; cited from earlier work"}, "M1CHO cells [4]": {"tested_on": "M1CHO cells", "experiment": "Pirenzapine inhibition of carbachol-mediated stimulation of M1CHO cells (intracellular pH)", "assay_type": "cell-based", "conditions": "pirenzapine 0.1, 0.3, 1.0 μM, carbachol 1 μM", "description": "as §1, with “M1CHO Cells,” for “M1CHO cells,”, “μL are” for “μL were”, “room temperature” for “room temperature,”, “ammonium chloride, in combination with pirenzapine to a final concentration of 0.0 μM, 1.0 μM, 0.3 μM, and 0.1 μM.” for “ammonium chloride is added.”, “drop in” for “drop is”, “20 seconds, corresponding to a drop in signal” for “20 seconds”"}, "MCF7/ADR cells": {"tested_on": "MCF7/ADR cells", "experiment": "Drug Resistance Assay: insulin on MCF7/ADR cells (intracellular pH)", "assay_type": "cell-based", "conditions": "0.003-150 nM insulin, after NH4Cl acid load, FIG. 6", "description": "MCF7/ADR cells are MCF7 mammary gland adenocarcinoma selected for adriamycin resistance. These cells are propagated and maintained in DMEM medium containing 5% FCS, 1× Pen/Strep, 2 mM L-glutamine, and non-essential amino acids. The assay is performed according to the following procedure.\nThe cells are then incubated in a 37° C. CO2 incubator overnight.\nA 25 mM stock solution of a Masking Compound is prepared by dissolving an appropriate amount of the desired Masking Compound in 10 mL water.\nThe cell plate is removed from the incubator, and all wells are washed once with 1× Assay Buffer, leaving 40 μL of buffer in each well. The cell plate is then incubated at 37° C. for at least 4 hours.\nA stock solution of insulin is prepared by dissolving 1 mg of insulin in 1 mL of 1 M HCl to a concentration of 174 μM. A 5 μL aliquot of the insulin stock solution is diluted with 4,574 μL H+H/2 mM probenecid/0.1% BSA solution (190 nM stock, 150 nM final concentration). Three-fold dilutions are performed 11 times to obtain final concentrations of 0.003, 0.008, 0.02, 0.07, 0.2, 0.6, 1.9, 5.6, 17, 50, and 150 nM, respectively."}, "CHO/CCR5/Galphaqi5 cells": {"tested_on": "CHO/CCR5/Galphaqi5 cells", "experiment": "Effect of increasing concentrations of RANTES on CHO/CCR5/Galphaqi5 cells (intracellular pH)", "assay_type": "cell-based", "conditions": "RANTES 2-500 nM, after ammonium chloride", "description": "CHO/CCR5/Galphaqi5 cells, 80,000, in 40 μL are seeded and incubated at 37° C., 5% CO2 overnight in a 96-well microplate. To each well is added 10 μL of Loading Buffer (as described in Examples 19 and 20) including a fluorescein diacetate compound of the invention and a nonfluorescent quenching dye. After 45 min at room temperature 5 μL of 220 mM ammonium chloride is added. Following an additional 15 min incubation at room temperature, 200 μL of buffer containing RANTES to a final concentration of 500, 167, 56, 19, 6, 2, or 0 nM is added using the fluidics module on a fluorescence microplate reader (10 seconds after the start of the experiment) and fluorescence readings are recorded. A drop in fluorescence signal is observed at time=10 to 20 seconds, corresponding to an increased acidification of the cells. The low pH stimulates the Na+/H+ exchange pump."}},
  "data": [
    {"molecule": "2′,7′-diethyl-5-(or 6-)carboxyfluorescein [Compound 4]", "values": [
      {"measurement": "calculated pKa (acid dissociation constant)", "setting": "[1]", "value": 6.96}
    ]},
    {"molecule": "C[N+](C)(C)CCOC(N)=O", "note": "[carbachol]", "values": [
      {"measurement": "activity of the Na+/H+ exchange pump / alkalinization of the cells", "setting": "M1CHO cells [2]", "value": "increases the activity of the pump, resulting in a greater alkalinization of the cells in a dose:dependent manner"}
    ]},
    {"molecule": "2′,7′-bis-(2-carboxyethyl)-5-(and-6)-carboxyfluorescein [BCECF]", "values": [
      {"measurement": "pKa", "setting": "[3]", "value": 7.0}
    ]},
    {"molecule": "CN1CCN(CC(=O)N2c3ccccc3C(=O)Nc3cccnc32)CC1", "note": "[Pirenzapine]", "values": [
      {"measurement": "effect on carbachol-mediated stimulation", "setting": "M1CHO cells [4]", "value": "inhibits the carbachol-mediated stimulation"}
    ]},
    {"molecule": "insulin", "values": [
      {"measurement": "activity of the Na+/H+ exchange pump / alkalinization of the cells", "setting": "MCF7/ADR cells", "value": "increases the activity of the pump, resulting in a greater alkalinization of the cells in a dose-dependent manner"}
    ]},
    {"molecule": "B1", "values": [
      {"measurement": "activity of the Na+/H+ exchange pump / alkalinization of the cells", "setting": "CHO/CCR5/Galphaqi5 cells", "value": "increases the activity of the pump, resulting in a greater alkalinization of the cells in a dose:dependent manner"}
    ]}
  ]
}
